# Source: ChEMBL document CHEMBL4177767, “Discovery of N2-(4-Amino-cyclohexyl)-9-cyclopentyl- N6-(4-morpholin-4-ylmethyl-phenyl)- 9H-purine-2,6-diamine as a Potent FLT3 Kinase Inhibitor for Acute Myeloid Leukemia with FLT3 Mutations” (J Med Chem, 2018)
# The source made the active and inactive calls. The calls are words filed in the database; no cut-off is given here.
# Experiments:
# MV4-11 [1] = assay: Cell cycle arrest in human MV4-11 cells assessed as accumulation at S phase at 10 nM after 24 hrs by propidium iodide staining-based flow cytometric method (reference value: 28.1%); format: functional
# MV4-11 [2] = assay: Cell cycle arrest in human MV4-11 cells assessed as accumulation at G1 phase at 0.1 nM after 24 hrs by propidium iodide staining-based flow cytometric method (reference value: 56%); format: functional
# MV4-11 [3] = assay: Cell cycle arrest in human MV4-11 cells assessed as accumulation at S phase at 1 nM after 24 hrs by propidium iodide staining-based flow cytometric method (reference value: 28.1%); format: functional
# HCC827 = assay: cells; conditions: Homo sapiens, HCC827, 72 h
# Mus musculus = organism: Mus musculus; assay: animal or person; conditions: MV4-11, ip, 2 h, read-out: INH
# MV4-11 [4] = assay: Cell cycle arrest in human MV4-11 cells assessed as accumulation at G1 phase at 0.01 nM after 24 hrs by propidium iodide staining-based flow cytometric method (reference value: 56%); format: functional
# [5] = target: Platelet-derived growth factor receptor beta (Homo sapiens) (UniProt P09619); conditions: 10 nM
# Sequence of Platelet-derived growth factor receptor beta (Homo sapiens) (P09619 whole entry): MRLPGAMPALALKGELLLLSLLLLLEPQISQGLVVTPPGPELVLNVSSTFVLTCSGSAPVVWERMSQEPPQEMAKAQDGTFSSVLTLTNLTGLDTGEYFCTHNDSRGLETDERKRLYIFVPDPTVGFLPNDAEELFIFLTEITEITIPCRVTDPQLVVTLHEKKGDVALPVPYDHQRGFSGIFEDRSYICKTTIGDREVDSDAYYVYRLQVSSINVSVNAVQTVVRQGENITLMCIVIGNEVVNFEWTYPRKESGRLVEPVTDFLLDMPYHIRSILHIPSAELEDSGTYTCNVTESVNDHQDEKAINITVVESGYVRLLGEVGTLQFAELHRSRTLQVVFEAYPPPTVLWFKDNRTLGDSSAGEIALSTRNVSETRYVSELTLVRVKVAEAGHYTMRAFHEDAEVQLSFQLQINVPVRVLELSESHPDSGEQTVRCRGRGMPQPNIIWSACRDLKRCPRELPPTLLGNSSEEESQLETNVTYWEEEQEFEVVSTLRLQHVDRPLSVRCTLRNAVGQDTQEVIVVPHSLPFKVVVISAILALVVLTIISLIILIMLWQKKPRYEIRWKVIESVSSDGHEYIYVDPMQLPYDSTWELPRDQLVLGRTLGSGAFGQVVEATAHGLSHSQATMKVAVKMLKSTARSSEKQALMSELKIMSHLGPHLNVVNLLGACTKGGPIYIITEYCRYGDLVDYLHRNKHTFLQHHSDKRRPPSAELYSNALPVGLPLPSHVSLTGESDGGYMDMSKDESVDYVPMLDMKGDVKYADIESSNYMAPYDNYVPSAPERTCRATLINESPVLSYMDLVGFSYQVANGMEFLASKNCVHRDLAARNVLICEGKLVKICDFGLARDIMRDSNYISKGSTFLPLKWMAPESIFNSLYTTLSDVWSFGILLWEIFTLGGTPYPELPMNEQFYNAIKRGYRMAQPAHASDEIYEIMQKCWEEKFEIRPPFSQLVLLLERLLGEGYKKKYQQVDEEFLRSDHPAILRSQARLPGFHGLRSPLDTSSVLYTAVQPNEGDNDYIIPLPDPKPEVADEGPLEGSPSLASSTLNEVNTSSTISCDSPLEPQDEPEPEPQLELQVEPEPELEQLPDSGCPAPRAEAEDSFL
# Description: Inhibition of human N-terminal GST-tagged PDGFRbeta cytoplasmic domain expressed in baculovirus expression system at 10 nM relative to control
# [6] = system: Receptor-type tyrosine-protein kinase FLT3 (Homo sapiens), P36888 [UNDEFINED MUTATION]; conditions: MV4-11, at 0.01 to 100 nM
# Description: Inhibition of FLT3 ITD mutant in human MV4-11 cells assessed as decrease in ERK1/2 phosphorylation at T202/Y204 at 0.01 to 100 nM after 1 hr by immunoblot analysis
# Rattus norvegicus [7] = assay: Toxicity in Wistar rat assessed as clinical signs of intoxication at 200 mg/kg, po measured over 15 days; format: organism-based; conditions: in vivo, 360 h
# K562 [8] = assay: cells; conditions: Homo sapiens, K562, 72 h
# [9] = system: Receptor-type tyrosine-protein kinase FLT3 (Homo sapiens), P36888 [UNDEFINED MUTATION]
# Description: Inhibition of FLT3 ITD mutant (unknown origin) transfected in mouse BA/F3 cells assessed as growth inhibition after 72 hrs by calcein AM dye-based fluorescence assay
# MV4-11 [10] = assay: Cell cycle arrest in human MV4-11 cells assessed as accumulation at G2/M phase at 100 nM after 24 hrs by propidium iodide staining-based flow cytometric method (reference value: 15.9%); format: functional
# [11] = target: Dual specificity protein kinase CLK1 (Homo sapiens) (UniProt P49759); conditions: 10 nM
# Sequence of Dual specificity protein kinase CLK1 (Homo sapiens) (P49759 whole entry, looked up): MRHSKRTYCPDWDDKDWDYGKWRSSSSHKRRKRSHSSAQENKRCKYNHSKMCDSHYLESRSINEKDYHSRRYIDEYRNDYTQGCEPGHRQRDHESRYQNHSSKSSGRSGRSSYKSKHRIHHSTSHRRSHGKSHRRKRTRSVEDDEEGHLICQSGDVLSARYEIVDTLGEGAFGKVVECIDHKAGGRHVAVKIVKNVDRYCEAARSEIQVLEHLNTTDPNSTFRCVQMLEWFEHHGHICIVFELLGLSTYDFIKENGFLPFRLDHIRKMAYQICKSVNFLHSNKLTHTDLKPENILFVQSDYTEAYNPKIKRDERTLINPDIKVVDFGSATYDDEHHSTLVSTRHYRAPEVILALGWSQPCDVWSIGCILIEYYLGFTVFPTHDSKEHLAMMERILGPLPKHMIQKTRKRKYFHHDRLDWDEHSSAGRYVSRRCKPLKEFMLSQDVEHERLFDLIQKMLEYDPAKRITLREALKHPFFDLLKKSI
# Description: Inhibition of human N-terminal GST-tagged CLK1 catalytic domain expressed in baculovirus expression system at 10 nM relative to control
# Rattus norvegicus [12] = assay: Toxicity in Wistar rat assessed as pathological macroscopic changes at 200 mg/kg, po after 15 days; format: organism-based; conditions: in vivo, 360 h
# [13] = target: Calcium/calmodulin-dependent protein kinase type II subunit gamma (Homo sapiens) (UniProt Q13555); conditions: 10 nM
# Sequence of Calcium/calmodulin-dependent protein kinase type II subunit gamma (Homo sapiens) (Q13555 whole entry): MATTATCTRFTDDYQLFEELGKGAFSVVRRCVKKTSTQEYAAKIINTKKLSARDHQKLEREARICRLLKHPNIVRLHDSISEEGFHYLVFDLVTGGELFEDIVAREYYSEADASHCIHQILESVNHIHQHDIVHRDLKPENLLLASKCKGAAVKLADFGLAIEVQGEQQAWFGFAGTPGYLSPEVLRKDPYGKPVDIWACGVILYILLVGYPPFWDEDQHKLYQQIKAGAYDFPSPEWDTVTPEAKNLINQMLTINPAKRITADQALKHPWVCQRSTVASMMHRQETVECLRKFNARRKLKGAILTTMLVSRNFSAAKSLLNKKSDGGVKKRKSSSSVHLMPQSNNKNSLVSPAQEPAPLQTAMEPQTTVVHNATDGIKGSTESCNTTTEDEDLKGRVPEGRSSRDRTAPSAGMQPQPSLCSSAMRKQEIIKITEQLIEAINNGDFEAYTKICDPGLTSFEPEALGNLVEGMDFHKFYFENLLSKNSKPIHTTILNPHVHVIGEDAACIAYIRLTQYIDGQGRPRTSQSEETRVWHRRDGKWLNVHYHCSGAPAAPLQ
# Description: Inhibition of full length human N-terminal GST-tagged CAMK2gamma expressed in baculovirus expression system at 10 nM relative to control
# Rattus norvegicus [14] = assay: Toxicity in Wistar rat assessed as mortality at 100 mg/kg, iv measured over 15 days; format: organism-based; conditions: in vivo, 360 h
# MV4-11 [15] = assay: Induction of apoptosis in human MV4-11 cells assessed as decrease in Mcl-1 levels at 10 to 100 nM after 24 hrs by immunoblot method; format: functional, cell-based
# MV4-11 [16] = assay: Cell cycle arrest in human MV4-11 cells assessed as accumulation at G1 phase at 1 nM after 24 hrs by propidium iodide staining-based flow cytometric method (reference value: 56%); format: functional
# MV4-11 [17] = assay: Cell cycle arrest in human MV4-11 cells assessed as accumulation at sub-G1 phase at 0.01 nM after 24 hrs by propidium iodide staining-based flow cytometric method (reference value: 9.2%); format: functional
# [18] = target: Macrophage colony-stimulating factor 1 receptor (Homo sapiens) (UniProt P07333); conditions: 10 nM
# Sequence of Macrophage colony-stimulating factor 1 receptor (Homo sapiens) (P07333 whole entry): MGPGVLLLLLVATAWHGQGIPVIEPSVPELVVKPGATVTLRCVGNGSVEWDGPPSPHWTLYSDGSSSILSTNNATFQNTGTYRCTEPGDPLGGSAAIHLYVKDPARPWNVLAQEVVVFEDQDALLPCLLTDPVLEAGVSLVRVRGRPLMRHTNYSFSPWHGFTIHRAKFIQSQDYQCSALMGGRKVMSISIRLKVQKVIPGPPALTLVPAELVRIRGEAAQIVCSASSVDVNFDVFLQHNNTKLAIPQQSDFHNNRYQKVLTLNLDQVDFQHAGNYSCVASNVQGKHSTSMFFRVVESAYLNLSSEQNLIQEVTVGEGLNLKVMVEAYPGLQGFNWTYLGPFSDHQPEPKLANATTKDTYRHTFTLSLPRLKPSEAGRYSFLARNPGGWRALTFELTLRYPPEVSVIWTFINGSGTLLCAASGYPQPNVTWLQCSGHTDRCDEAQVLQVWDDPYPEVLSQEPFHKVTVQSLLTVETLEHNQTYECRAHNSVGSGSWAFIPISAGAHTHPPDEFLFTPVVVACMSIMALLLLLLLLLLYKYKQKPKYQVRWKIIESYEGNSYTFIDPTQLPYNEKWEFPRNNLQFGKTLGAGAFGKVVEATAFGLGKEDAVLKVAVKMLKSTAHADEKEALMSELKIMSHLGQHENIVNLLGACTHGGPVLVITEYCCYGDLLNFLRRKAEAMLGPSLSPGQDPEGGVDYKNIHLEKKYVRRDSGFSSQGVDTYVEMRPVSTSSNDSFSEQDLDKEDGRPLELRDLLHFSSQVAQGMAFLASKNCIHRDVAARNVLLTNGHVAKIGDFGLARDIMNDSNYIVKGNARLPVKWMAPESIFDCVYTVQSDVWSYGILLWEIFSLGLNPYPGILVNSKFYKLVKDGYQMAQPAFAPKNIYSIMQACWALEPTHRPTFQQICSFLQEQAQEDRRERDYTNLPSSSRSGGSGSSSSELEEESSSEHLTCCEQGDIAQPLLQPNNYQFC
# Description: Inhibition of human N-terminal GST-tagged FMS expressed in baculovirus expression system at 10 nM relative to control
# MV4-11 [19] = assay: Cell cycle arrest in human MV4-11 cells assessed as accumulation at sub-G1 phase at 1 nM after 24 hrs by propidium iodide staining-based flow cytometric method (reference value: 9.2%); format: functional
# Rattus norvegicus [20] = assay: Toxicity in Wistar rat assessed as pathological macroscopic changes at 100 mg/kg, iv after 15 days; format: organism-based; conditions: in vivo, 360 h
# MV4-11 [21] = assay: Cell cycle arrest in human MV4-11 cells assessed as accumulation at G2/M phase at 10 nM after 24 hrs by propidium iodide staining-based flow cytometric method (reference value: 15.9%); format: functional
# [22] = target: Tyrosine-protein kinase Yes (Homo sapiens) (UniProt P07947); conditions: 10 nM
# Sequence of Tyrosine-protein kinase Yes (Homo sapiens) (P07947 2-543 limits assumed): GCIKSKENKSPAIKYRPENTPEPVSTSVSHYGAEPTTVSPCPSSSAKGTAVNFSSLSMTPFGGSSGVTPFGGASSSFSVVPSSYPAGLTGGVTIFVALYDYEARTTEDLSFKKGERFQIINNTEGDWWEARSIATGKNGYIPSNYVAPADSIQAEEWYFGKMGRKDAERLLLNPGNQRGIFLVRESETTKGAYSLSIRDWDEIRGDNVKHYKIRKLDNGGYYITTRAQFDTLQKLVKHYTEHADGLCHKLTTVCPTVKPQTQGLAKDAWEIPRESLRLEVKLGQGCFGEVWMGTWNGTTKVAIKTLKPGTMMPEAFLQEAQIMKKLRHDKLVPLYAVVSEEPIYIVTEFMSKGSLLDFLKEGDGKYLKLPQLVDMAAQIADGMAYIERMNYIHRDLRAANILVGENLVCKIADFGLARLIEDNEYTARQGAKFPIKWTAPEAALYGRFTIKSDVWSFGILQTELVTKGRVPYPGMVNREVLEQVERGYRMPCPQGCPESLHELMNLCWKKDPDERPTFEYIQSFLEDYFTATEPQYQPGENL
# Description: Inhibition of human full length N-terminal GST-tagged Yes expressed in baculovirus expression system at 10 nM relative to control
# MV4-11 [23] = assay: Induction of apoptosis in human MV4-11 cells assessed as increase in caspase-3/7 activity using Ac-DEVD-AMC substrate after 24 hrs by fluorescence assay; format: functional, cell-based
# K562 [24] = assay: Induction of apoptosis in human K562 cells assessed as increase in caspase-3/7 activity using Ac-DEVD-AMC substrate after 24 hrs by fluorescence assay; format: functional, cell-based
# MCF7 = assay: cells; conditions: Homo sapiens, MCF7, 72 h
# [25] = target: Calcium/calmodulin-dependent protein kinase type II subunit delta (Homo sapiens) (UniProt Q13557); conditions: 10 nM
# Sequence of Calcium/calmodulin-dependent protein kinase type II subunit delta (Homo sapiens) (Q13557 whole entry): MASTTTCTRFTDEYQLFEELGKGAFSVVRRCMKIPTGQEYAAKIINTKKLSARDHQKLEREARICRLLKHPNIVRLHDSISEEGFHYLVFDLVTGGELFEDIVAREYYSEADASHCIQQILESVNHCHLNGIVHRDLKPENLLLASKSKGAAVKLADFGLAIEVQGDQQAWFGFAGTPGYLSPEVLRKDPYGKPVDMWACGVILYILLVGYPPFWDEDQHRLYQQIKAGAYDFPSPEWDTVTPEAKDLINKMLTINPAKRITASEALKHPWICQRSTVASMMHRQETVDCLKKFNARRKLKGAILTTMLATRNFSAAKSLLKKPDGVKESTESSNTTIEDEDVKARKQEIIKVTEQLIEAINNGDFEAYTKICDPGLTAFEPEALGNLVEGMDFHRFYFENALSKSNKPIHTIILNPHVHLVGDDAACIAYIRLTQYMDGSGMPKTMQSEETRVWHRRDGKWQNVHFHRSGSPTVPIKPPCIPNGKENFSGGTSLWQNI
# Description: Inhibition of full length human N-terminal GST-tagged CaMK2delta expressed in baculovirus expression system at 10 nM relative to control
# MV4-11 [26] = assay: Cell cycle arrest in human MV4-11 cells assessed as accumulation at sub-G1 phase at 10 nM after 24 hrs by propidium iodide staining-based flow cytometric method (reference value: 9.2%); format: functional
# [27] = target: Receptor-type tyrosine-protein kinase FLT3 (Homo sapiens, UniProt P36888, D835Y); assay: biochemical; format: cell-based, Sf9
# Description: Inhibition of N-terminal GST/His6-fused recombinant human FLT3 (R571 to S993 residues) D835Y mutant expressed in Sf9 insect cells using poly (Ala,Glu,Lys,Tyr) 6:2:5:1 hydrobromide as substrate in presence of [gamma-33P]ATP
# [28] = system: Mast/stem cell growth factor receptor Kit (Homo sapiens), P10721 [D816V]; conditions: 10 nM
# Description: Inhibition of human N-terminal GST-tagged KIT D816V mutant cytoplasmic domain expressed in baculovirus expression system at 10 nM relative to control
# [29] = target: MAP kinase-interacting serine/threonine-protein kinase 2 (Homo sapiens) (UniProt Q9HBH9); conditions: 10 nM
# Sequence of MAP kinase-interacting serine/threonine-protein kinase 2 (Homo sapiens) (Q9HBH9 whole entry, looked up): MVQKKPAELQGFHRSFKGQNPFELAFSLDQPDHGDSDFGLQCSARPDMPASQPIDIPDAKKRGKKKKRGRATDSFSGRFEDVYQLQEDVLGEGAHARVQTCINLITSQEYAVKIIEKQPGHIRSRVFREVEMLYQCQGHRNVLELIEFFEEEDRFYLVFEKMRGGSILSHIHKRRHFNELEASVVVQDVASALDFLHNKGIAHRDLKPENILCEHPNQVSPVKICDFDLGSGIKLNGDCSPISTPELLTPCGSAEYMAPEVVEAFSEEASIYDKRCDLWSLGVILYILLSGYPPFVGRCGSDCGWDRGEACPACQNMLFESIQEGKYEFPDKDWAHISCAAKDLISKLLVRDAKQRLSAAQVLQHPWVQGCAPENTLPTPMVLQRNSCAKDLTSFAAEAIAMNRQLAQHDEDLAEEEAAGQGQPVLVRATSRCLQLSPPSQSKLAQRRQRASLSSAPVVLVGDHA
# Description: Inhibition of full length human N-terminal GST-tagged MNK2 expressed in baculovirus expression system at 10 nM relative to control
# in vitro = conditions: human, BJ cells
# MV4-11 [30] = assay: Induction of apoptosis in human MV4-11 cells assessed as increase in PARP1 cleavage at 10 to 100 nM after 24 hrs by immunoblot method; format: functional, cell-based
# [31] = system: Receptor-type tyrosine-protein kinase FLT3 (Homo sapiens), P36888 [UNDEFINED MUTATION]; conditions: MV4-11, at 0.01 to 100 nM; remark: listed apart in the source
# Description: Inhibition of FLT3 ITD mutant in human MV4-11 cells assessed as decrease in AKT phosphorylation at S473 at 0.01 to 100 nM after 1 hr by immunoblot analysis
# [32] = target: High affinity nerve growth factor receptor (Homo sapiens) (UniProt P04629); conditions: 10 nM
# Description: Inhibition of human N-terminal GST-tagged TRK cytoplasmic domain expressed in baculovirus expression system at 10 nM relative to control
# MV4-11 [33] = assay: Cell cycle arrest in human MV4-11 cells assessed as accumulation at S phase at 0.01 nM after 24 hrs by propidium iodide staining-based flow cytometric method (reference value: 28.1%); format: functional
# MV4-11 [34] = assay: Growth inhibition of human MV4-11 cells after 72 hrs by calcein AM dye-based fluorescence assay; format: functional; conditions: MV4-11, 72 h
# U-937 = assay: cells; conditions: Homo sapiens, U-937, 72 h
smiles,measurement,setting,value
N[C@H]1CC[C@H](Nc2nc(Nc3ccc(CN4CCOCC4)cc3)c3ncn(C4CCCC4)c3n2)CC1,Activity,MV4-11 [1],2.7%
same,Activity,MV4-11 [2],59.7%
same,Activity,MV4-11 [3],8.6%
same,GI50,HCC827,327 nM
same,inhibition in vivo at 10 mg/kg,Mus musculus,95%
same,Activity,MV4-11 [4],5.6%
same,inhibition,[5],> 90%
same,inhibition,[6],Active
same,Activity,Rattus norvegicus [7],Non-Toxic
same,GI50,K562 [8],380 nM
same,GI50,[9],34 nM
same,Activity,MV4-11 [10],1.2%
same,inhibition,[11],> 90%
same,Activity,Rattus norvegicus [12],Non-Toxic
same,inhibition,[13],> 90%
same,Activity,Rattus norvegicus [14],Non-Toxic
same,Activity,MV4-11 [15],Active
same,Activity,MV4-11 [16],90.3%
same,Activity,MV4-11 [17],9.9%
same,inhibition,[18],> 90%
same,Activity,MV4-11 [19],20.4%
same,Activity,Rattus norvegicus [20],Non-Toxic
same,Activity,MV4-11 [21],0.8%
same,inhibition,[22],> 90%
same,Activity,MV4-11 [23],Active
same,Activity,K562 [24],inactive
same,GI50,MCF7,197 nM
same,inhibition,[25],> 90%
same,Activity,MV4-11 [26],42.9%
same,IC50,[27],8 nM
same,inhibition,[28],> 90%
same,inhibition,[29],> 90%
same,GI50 at 72 h,in vitro,12700 nM
same,Activity,MV4-11 [30],Active
same,inhibition,[31],Active
same,inhibition,[32],> 90%
same,Activity,MV4-11 [33],29.9%
same,GI50,MV4-11 [34],2 nM
same,GI50,U-937,664 nM
